Laboratory results reported in US6645969B1, “Aryl and heteroaryl quinazoline compounds which inhibit CSF-1R receptor tyrosine kinase” (Aventis Pharmaceuticals Inc., priority 1991, dated 2003).

Tests used:
p56^Ick tyrosine kinase = molecular target: T1, p56^Ick tyrosine kinase (Homo sapiens, UniProt P06239); experiment: Ick kinase cell-free assay (immunoprecipitated from Jurkat lysate); type: biochemical
T1 construct: samples containing Ick immuno-precipitated from 2×10^6 cells; endogenous in cells; host or cells: Jurkat (human T-cell leukemia, ATCC clone E6-1)
T1 sequence (P06239 whole entry): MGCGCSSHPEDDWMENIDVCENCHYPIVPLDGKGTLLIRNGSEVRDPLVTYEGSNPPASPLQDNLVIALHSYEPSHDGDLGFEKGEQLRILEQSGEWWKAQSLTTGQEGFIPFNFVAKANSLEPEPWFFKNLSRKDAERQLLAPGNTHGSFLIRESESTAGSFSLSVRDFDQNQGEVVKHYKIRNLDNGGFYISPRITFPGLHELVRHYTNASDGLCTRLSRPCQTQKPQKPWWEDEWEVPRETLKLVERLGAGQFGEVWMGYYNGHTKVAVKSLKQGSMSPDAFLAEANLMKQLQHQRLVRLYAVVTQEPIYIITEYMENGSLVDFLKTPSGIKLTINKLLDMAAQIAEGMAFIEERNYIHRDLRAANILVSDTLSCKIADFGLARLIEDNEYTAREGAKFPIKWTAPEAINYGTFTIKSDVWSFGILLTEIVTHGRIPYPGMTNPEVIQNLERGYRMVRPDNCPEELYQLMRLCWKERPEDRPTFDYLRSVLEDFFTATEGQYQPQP
Method: Ick Kinase: Immunoprecipitated from Jurkat Lysate
B. Cells are grown to 1-1.5×10^6 cells/ml media, pelleted by centrifugation, and lysed in lysis buffer at 10^8 cells/ml buffer (50 mM tris (pH 8), 150 mM NaCl, 5 mM EDTA, 10% glycerol, and 1% NP-40, to which fresh protease and phosphatase inhibitors are added as described above for A431 lysate). Lysates stored at −70° C.
C. Immunoprecipitation: 3-4 mg Protein-A sepharose/sample washed 2×20 mM Hepes (pH 7.5). 1 ul α-Ick antibody (prepared as polyclonals in rabbits using a peptide antigen corresponding to the N-terminal region of human Ick) per sample added to the Protein-A and shaken 20 min at room temperature. After washing 3× HNTG, lysate from 2×10^6 cells is added to each sample, rotated 2 hr at 4° C., then washed 3× HNTG (2nd wash containing 0.5 N NaCl). If all samples contain identical concentrations of the enzyme, then the immuno-precipitation can be done in bulk and alloquoted to appropriate numbers of tubes prior to assay set-up.
Samples are analyzed by 5-15% SDS-PAGE and autoradiography as described for EGFR kinase assays.

CSF-1R tyrosine kinase = molecular target: T2, CSF-1R tyrosine kinase (Homo sapiens, UniProt P07333); experiment: CSF-1R cell-free autophosphorylation assay; type: biochemical
T2 construct: host or cells: unnamed cell lysate ('stimulated lysate')
T2 sequence (P07333 20-972): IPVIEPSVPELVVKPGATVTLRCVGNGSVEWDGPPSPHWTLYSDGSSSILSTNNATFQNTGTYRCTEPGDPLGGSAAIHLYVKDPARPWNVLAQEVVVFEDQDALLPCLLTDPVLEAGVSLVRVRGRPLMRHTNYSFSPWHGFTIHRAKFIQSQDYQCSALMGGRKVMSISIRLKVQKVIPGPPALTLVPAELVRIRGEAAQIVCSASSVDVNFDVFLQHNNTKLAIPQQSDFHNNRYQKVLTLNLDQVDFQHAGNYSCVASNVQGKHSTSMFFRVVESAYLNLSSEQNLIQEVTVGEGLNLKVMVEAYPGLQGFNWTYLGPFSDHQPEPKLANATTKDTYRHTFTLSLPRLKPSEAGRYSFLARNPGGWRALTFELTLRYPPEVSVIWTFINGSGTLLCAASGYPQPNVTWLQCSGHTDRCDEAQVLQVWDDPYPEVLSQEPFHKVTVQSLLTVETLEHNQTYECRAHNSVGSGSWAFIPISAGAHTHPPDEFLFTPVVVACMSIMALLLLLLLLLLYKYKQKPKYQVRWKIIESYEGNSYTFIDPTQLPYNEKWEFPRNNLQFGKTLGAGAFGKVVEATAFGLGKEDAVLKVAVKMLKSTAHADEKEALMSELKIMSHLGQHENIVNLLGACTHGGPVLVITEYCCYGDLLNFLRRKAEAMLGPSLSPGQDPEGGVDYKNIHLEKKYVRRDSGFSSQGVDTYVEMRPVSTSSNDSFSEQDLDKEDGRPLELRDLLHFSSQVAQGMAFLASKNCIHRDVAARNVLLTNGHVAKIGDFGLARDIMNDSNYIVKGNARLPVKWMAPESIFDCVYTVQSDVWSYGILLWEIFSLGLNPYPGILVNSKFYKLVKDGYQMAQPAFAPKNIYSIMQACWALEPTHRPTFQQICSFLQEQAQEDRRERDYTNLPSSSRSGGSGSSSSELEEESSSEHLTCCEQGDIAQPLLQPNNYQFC
Method: CSF-1R Cell-free Autophosphorylation Assay
For a regular 28 tube assay (14 samples per 15 well gel):
In 2 ml eppendorf tube: 140 mg protein A sepharose (5 mg/sample)
Swell in 20 mM Hepes pH 7.5 and wash 2× in Hepes
In 15 ml tube: 2.8 ml lysate lysis buffer: 20 mM Hepes
Protease inhibitors added fresh:
PMSF: 8 mg/ml=[…] in 100% EtOH, store frozen, add 100 λ/10 ml lysis buffer Aprotinin: 10 mg/ml=250× in H2O, store frozen, add 40 λ/10 ml lysis buffer Leupeptin: 1 mg/ml=250× in H2O, store frozen, add 40 λ/10 ml lysis buffer Add washed beads to stimulated lysate and incubate 90 min 4° C. on rotator or shaking prepare 28 compound tubes: make 40 mM solutions of compounds in 100% DMSO make serial dilutions in 50 mM Tris pH 7.5+10 mM MnCl2 aliquot 10λ compound solution into each 1 ml eppendorf reaction tube waiting on ice, control blanks get 10λ buffer Wash beads 1×HNTG, 2×10 mM Tris pH 7.5
2.7λ cold ATP (stock of 10 mM in 50 mM
Vortex, incubate 10 min on ice
Add 45λ 2×SDS-sample buffer, heat 95° C. 6 min
7.5% SDS-PAGE, fix, dry, expose (usually 4 hrs)

SMILES	IC50 (p56^Ick tyrosine kinase)	IC50 (CSF-1R tyrosine kinase)	melting point
COc1cc2ncnc(NC3CCCCC3)c2cc1OC		> 50 µM	
COc1cc2ncnc(Nc3ccc4ccccc4c3)c2cc1OC		> 50 µM	
COc1cc2ncnc(Nc3cccc4ccccc34)c2cc1OC	2.5 µM	> 50 µM	
COc1ccc(Nc2ncnc3cc(OC)c(OC)cc23)cc1OC		> 20 µM	
COc1cc2ncnc(Sc3cccc(Cl)c3)c2cc1OC	2.5 µM	3 µM	
COc1cccc(Sc2ncnc3cc(OC)c(OC)cc23)c1	5 µM	1 µM	
COc1cc2ncnc(Oc3cc(OC)c(OC)c(OC)c3)c2cc1OC	5 µM	> 50 µM	

Results, then the compound that gave them:

IC50 (p56^Ick tyrosine kinase)	IC50 (CSF-1R tyrosine kinase)	melting point	SMILES
> 10 µM	6 µM		COc1cc2ncnc(-c3ccsc3)c2cc1OC
> 50 µM	0.5 µM		COc1cc2ncnc(N(C)c3ccccc3)c2cc1OC
> 50 µM	4 µM		CCN(c1ccccc1)c1ncnc2cc(OC)c(OC)cc12
	> 100 µM		COc1cc(Nc2ncnc3cc(OC)c(OC)cc23)cc(OC)c1
	> 100 µM		COc1cc2ncnc(Nc3cc(OC)c(OC)c(OC)c3)c2cc1OC
20 µM	≥ 20 µM		COc1cc2ncnc(NCc3ccccc3)c2cc1OC
2.9 µM	15 µM		COc1cc2ncnc(-c3cccc(-c4ccccc4)c3)c2cc1OC
		152 to 153 °C	COc1cc2ncnc(Oc3cccc(Cl)c3)c2cc1OC [Example 1, 4-(3-Chlorophenoxy)-6,7-dimethoxyquinazoline]
1 µM	> 50 µM		COc1cc2ncnc(Oc3cccc(Cl)c3)c2cc1OC [drawing 19]
